In assay [1] the test system is rat epidermal keratinocyte (REK) cells. The assay is described as follows: PpIX formation in rat epidermal keratinocyte cells incubated with ALA at different temperatures. Type of assay: cell-based. Particulars: 0.5 mM ALA, after three hours (FIG. 2). The protocol:
Two trials of rat epidermal keratinocyte (REK) cells were incubated with 0.5 mM ALA at temperatures of 21° C. and 37° C., respectively, for varying times. […] Accordingly, a temperature gradient of about 16° C. is more than sufficient to inhibit metabolism of a photosensitizing agent in epidermal tissue surrounding a targeted treatment site.
Several trials of rat epidermal keratinocyte (REK) cells were incubated with various amounts of ALA ranging from 0.1 mM to 0.5 mM, at various temperatures ranging from 15° C. to 40° C.

Another assay relates to human skin. Description: PpIX fluorescence imaging in human skin after topical DOHA followed by topical ALA. The settings on record: human skin in vivo, DOHA topical 0.1%, 0.3%, 1% for 1 hour, followed by topical 5% ALA (FIG. 6). The protocol: DOHA was topically applied to human skin in concentrations of (a) 0.1%, (b) 0.3%, and (c) 1% for 1 hour, followed by topical application of 5% ALA. PpIX fluorescence was then imaged.

Assay [2] relates to rat epidermal keratinocyte (REK) cells. The assay is described as follows: Effect of DOHA pre-incubation on ALA-induced PpIX formation in REK cells. Type of assay: cell-based. The settings on record: washed, then 0.25 mM ALA for 3 hours (FIG. 4). On the procedure:
Several trials of rat epidermal keratinocyte (REK) cells were pre-incubated with various amounts of 4-dioxoheptanoic acid (DOHA) ranging from 1^−8 M to 1^−4 M. The cells were then washed, and incubated with 0.25 mM ALA for 3 hours.

With `NCC(=O)CCC(=O)O` [ALA, aminolevulinic acid], the figures for the PpIX concentration entry in assay [1] (21° C.) and in assay [1] (37° C.) were “less than 50 pmol/10^6” and “greater than 400 pmol/10^6”, respectively.

`CC(=O)CC(=O)CCC(=O)O` [DOHA, 4-dioxoheptanoic acid]: the “PpIX formation (fluorescence)” value in the assay on human skin is “effective to chemically inhibit PpIX formation”. Besides, the values for the PpIX formation result in assay [2] (REK cells pre-incubated with DOHA at concentrations greater than 10^−5 M) and in assay [2] (REK cells pre-incubated with DOHA at concentrations greater than 10^−7 M) were “even further chemical inhibition” and “significantly inhibited”, respectively.
